The conditions of the data set: 37° C., diffusion time 4 h, lidocaine 0.05% (hya 0.25% where present) in donor compartment.

Read-outs that look alike come from different tables or passages of the source.

Regarding `CCN(CC)CC(=O)Nc1c(C)cccc1C` [lidocaine], the Flux by setting is: (pH 3.1) 0.32 mg h^−1 cm^−2; (pH 6.0) 0.355 mg h^−1 cm^−2; (pH 6.5) 0.315 mg h^−1 cm^−2; (pH 6.9) 0.42 mg h^−1 cm^−2; (pH 7.7) 0.35 mg h^−1 cm^−2; (pH 9.0) 0.09 mg h^−1 cm^−2.

The values above are taken from patent US20060122147A1, “Combination preparation of hyaluronic acid and at least oe local anesthetic and the use thereof” (priority 2002, published 2006).
